Assay results from patent US20090076032A1, “Derivatives of 18Beta-Glycyrrhetinic Acid” (priority 2006, published 2009).
Read-outs that look alike come from different tables or passages of the source.

What was measured:
NHEKa cells = assay: NHEKa cell viability/proliferation assay, amended plate design (ATP luminescence), example 12; settings: retinol 500 nM; for luminescence compared to the controls: 2.5 μM inhibitor
Description: To obtain a direct comparison of each inhibitor compared with carbenoxolone, the design of the assay was amended, so that each plate contained a range of different inhibitors at the same concentration compared to carbenoxolone. This removed inter-plate variation when comparing inhibitors used at the same concentration.
The medium (200 μl in each well) was replaced after 24 and 72 hours of growth with fresh pre-warmed medium containing retinol (500 nM final concentration) and the indicated inhibitor, consequently the length of treatment was 72 hours.

[1] = biological target: T1, recombinant human retinol dehydrogenase enzyme 2 (hRoDH-E2) (Homo sapiens, UniProt Q9BPW9); assay: Spectrometric hRoDH-E2 activity assay (retinal generation at 400 nm); type: biochemical; settings: E. coli RIL (+hRoDH-E2) SS, 15.625-250 μM, 2.5% DMSO, 125 μM retinol
T1 construct: host or cells: E. coli RIL
T1 sequence (Q9BPW9 18-319): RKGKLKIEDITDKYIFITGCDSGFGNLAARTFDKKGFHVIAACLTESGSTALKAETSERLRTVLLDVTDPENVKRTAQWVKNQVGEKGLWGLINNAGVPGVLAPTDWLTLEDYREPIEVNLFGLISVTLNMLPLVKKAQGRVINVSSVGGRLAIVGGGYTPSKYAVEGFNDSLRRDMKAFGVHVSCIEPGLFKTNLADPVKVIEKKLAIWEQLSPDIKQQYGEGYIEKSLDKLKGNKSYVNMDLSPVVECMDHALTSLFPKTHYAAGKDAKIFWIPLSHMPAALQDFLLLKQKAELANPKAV
Description: A reaction mix was prepared, consisting of a buffered solution containing excess retinol (10 mM HEPES, 150 mM KCl, 2 mM EDTA, pH 8.0; 0.02% Tween 80; 125 μM retinol). Preliminary experiments concluded that sufficient cofactor was present in the crude enzyme source, therefore, this was not supplemented into the reaction buffer. The enzyme source was provided by the BioCatalysis Centre, University of Exeter, as a crude sonicated supernatant (SS) from harvested E. coli RIL cells transfected with the hRoDH-E2 expression vector. […] The reaction, initiated by the addition of enzyme (accounting for 5% total reaction volume), was monitored at 400 nm to measure the generation of retinal from retinol. The rate of retinal generation was determined as the change in milli-absorbance units per minute (mAbs/min).
Multi-well assay plates (96) were preloaded with DMSO (2.5% final reaction volume), containing inhibitor where required. […] The contents of each well were mixed by aspiration and the plate loaded into a multi-well plate reader set at 37° C. The generation of retinal was monitored at 400 nm over 30 minutes, during which time the reaction reached maximum velocity under uninhibited conditions after 600 seconds and began to decelerate after 1200 seconds in each case tested. […]

[2] = test system: normal human keratinocytes (NHEKa); type: cell-based; settings: 24 hours
Description: The cells used were normal human keratinocytes (NHEKa). All cells were cultured in T75 flasks according to the supplier's guidelines for maintenance of stocks. Frozen stocks of cells that had gone through two passages were seeded into T25 flasks at a seeding density of 2.5×10^3 cells per cm^2. The cells were then left to grow over 5 days with media changes being carried out every two days.
Cell culture treatment media were prepared for all the test compounds at four concentrations, namely 1 μM, 2.5 μM, 5 μM and 10 μM (final concentration). Control treatments on cells of normal media (no treatment) and DMSO were also carried out.
All treatment media were sterilised by filtration and added to the T25 flasks after removal of spent media. The cells were then incubated at 37° C. for 24 hours. The treatment media were removed from the T25 flasks and the cells washed with 5 ml of PBS before 1 ml of Trypsin/EDTA (TE) (Cascade, Mansfield, UK) solution was added to the flaks and left for approximately 8-10 minutes for the cells to lift off the growth surface. The trypsin was neutralised with 3 ml Trypsin Neutraliser (TN) (Cascade). The cells were then harvested and transferred to a separate 15 ml centrifuge tube for each treatment regime. The cells were spun at 180×g for 7 minutes and the medium was removed.
The cells were resuspended in 1 ml of ice cold PBS before being transferred to a microcentrifuge tube and spun at 200×g for 2 minutes. The PBS was removed and the cells were resuspended in 100 μl of binding buffer (10 mM Hepes, 140 mM NaCl, 2.5 mM CaCl2, pH 7.4) before the addition of 5 μl of a propidium iodide (PI) staining solution (BD Biosciences, Cowley, UK). The cells were incubated at 20° C. for 5 minutes before the addition of 300 μl of binding buffer followed by immediate analysis by flow cytometry. Cells taking up the PI stain were dead, cells not staining with PI were viable. The level of staining within the cells could be viewed by flow cytometry.
This type of analysis takes account of the natural variability in the growth and survival of different batches of cells. Data presented are from three repeats +SEM.

[3] = test system: Normal human keratinocyte (NHEKa) cells; assay: NHEKa cell proliferation assay (ATP levels, CellTitre-Glo), example 11; type: cell-based
Description: Normal human keratinocyte (NHEKa) cells were cultured in the presence and absence of set concentrations of the five 18β-glycyrrhetinic acid derivatives, in multi-well assay plates (96), over a five-day period. The cells, seeded at a density of 5,000 or 2,500 cells per well, were cultured in keratinocyte growth medium (KGM) (Cascade Biologics), to which retinol and various concentrations of the 18β-glycyrrhetinic acid derivatives dissolved in KGM and DMSO were added. Control treatments included KGM only, KGM and retinol, and KGM and DMSO.
After the five-day period, cell proliferation was determined by assay of ATP levels (directly associated with cell density) using a commercially available kit (CellTitre-Glo, Promega). In the presence of suitable controls, reduced proliferation (cell growth measured by ATP generation) indicates an anti-proliferative effect of a given 18β-glycyrrhetinic acid derivative.

[4] = all four concentrations (1, 2.5, 5 and 10 μM)

Molecule | luminescence compared to the controls (NHEKa cells) | viability of NHEKa cells (proportion of viable cells referenced to DMSO) [2, 4] | further results
CC(C)(CC(=O)O[C@H]1CC[C@]2(C)[C@H]3C(=O)C=C4[C@@H]5C[C@@](C)(C(=O)O)CC[C@]5(C)CC[C@@]4(C)[C@]3(C)CC[C@H]2C1(C)C)C(=O)O [YP022, 2,2-Dimethyl-succinic acid 4-((3S,4aR,6aR,6bS,8aS,11S,12aR,14aR,14bS)-11-carboxy-4,4,6a,6b,8a,11,14b-heptamethyl-14-oxo-1,2,3,4,4a,5,6,6a,6b,7,8,8a,9,10,11,12, 12a,14,14a, 14b-icosahydro-picen-3-yl) ester] | significantly less luminescence |  | 
CC1(C)[C@@H](OC(=O)CCC(=O)O)CC[C@]2(C)[C@H]3C(=O)C=C4[C@@H]5C[C@@](C)(C(=O)O)CC[C@]5(C)CC[C@@]4(C)[C@]3(C)CC[C@@H]12 [carbenoxolone, reference compound] | significantly less luminescence |  | luminescence detected compared to the untreated control (NHEKa cells; 5.0 μM inhibitor): 41%; inhibition of recombinant hRoDH-E2 activity (generation of retinal from retinol) [1]: reduce the generation of retinal from retinol; viability of NHEKa cells (proportion of viable cells referenced to DMSO) ([2]; 1 μM and 2.5 μM): slight decrease in viability
COC(=O)[C@@]1(C)CC[C@]2(C)CCC3(C)C(=CC(=O)C4[C@@]5(C)CC[C@H](OC(=O)c6ccccc6C(=O)O)C(C)(C)C5CC[C@]43C)[C@@H]2C1 (stereo in doubt) [YP015, Phthalic acid mono-(11-methoxycarbonyl-4,4,6a,6b,8a,11,14b-heptamethyl-14-oxo-1,2,3,4,4a,5,6,6a,6b,7,8,8a,9, 10,11,12,12a, 14,14a, 14b-icosahydro-picen-3-yl) ester] |  | no decrease in viability | anti-proliferative properties compared with carbenoxolone sodium ([3]; at equal concentrations): more potent
CC1(C)[C@@H](OC(=O)C2=C(C(=O)O)CCC2)CC[C@]2(C)[C@H]3C(=O)C=C4[C@@H]5C[C@@](C)(C(=O)O)CC[C@]5(C)CC[C@@]4(C)[C@]3(C)CC[C@@H]12 [YP026, Cyclopent-1-ene-1,2-dicarboxylic acid mono-((3S,4aR,6aR,6bS,8aS,11S,12aR, 14aR,14bS)-11-carboxy-4,4,6a,6b,8a,11,14b-heptamethyl-14-oxo-1,2,3,4,4a,5,6,6a,6b,7,8,8a,9,10,11,12,12a,14,14a, 14b-icosahydro-picen-3-yl) ester] | significantly less luminescence | slight increase in viability | 
trans-Cyclohexane-1,2-dicarboxylic acid mono-((3S,4aR,6aR,6bS,8aS,11S, 12aR,14aR,14bS)-11-carboxy-4,4,6a,6b,8a,11,14b-heptamethyl-14-oxo-1,2,3,4,4a,5,6,6a,6b, 7,8,8a,9,10,11,12,12a,14,14a, 14b-icosahydro-picen-3-yl) ester [YP023] |  | slight increase in viability | 
CC(=O)CC(=O)OC1CCC2(C)C(CCC3(C)C2C(=O)C=C2C4CC(C)(C(=O)O)CCC4(C)CCC23C)C1(C)C (stereo not shown) [YP016, 2,4a,6a,6b,9,9,12a-Heptamethyl-13-oxo-10-(3-oxo-butyryloxy)-1,2,3,4,4a,5,6,6a,6b, 7,8,8a,9,10,11,12, 12a,12b,13,14b-icosahydro-picene-2-carboxylic acid] |  | no decrease in viability | 
CC1(C)[C@@H](OC(=O)CCC(=O)O)CC[C@]2(C)[C@H]3C(=O)C=C4[C@@H]5C[C@@](C)(C(=O)O)CC[C@]5(C)CC[C@@]4(C)[C@]3(C)CC[C@@H]12 [carbenoxolone sodium, reference compound] |  |  | effect on NHEKa cell proliferation (ATP levels compared to the controls) ([3]; five-day culture, with retinol, various concentrations): suppresses NHEKa cell proliferation
CC1(C)[C@@H](OC(=O)[C@@H]2CCCC[C@@H]2C(=O)O)CC[C@]2(C)[C@H]3C(=O)C=C4[C@@H]5C[C@@](C)(C(=O)O)CC[C@]5(C)CC[C@@]4(C)[C@]3(C)CC[C@@H]12 (mixture of isomers) [YP024, cis-Cyclohexane-1,2-dicarboxylic acid mono-((3S,4aR,6aR,6bS,8aS,11S, 12aR,14aR,14bS)-11-carboxy-4,4,6a,6b,8a,11,14b-heptamethyl-14-oxo-1,2,3,4,4a,5,6,6a,6b, 7,8,8a,9,10,11,12, 12a, 14, 14a, 14b-icosahydro-picen-3-yl) ester] |  | slight increase in viability | 
